Laboratory results taken from patent publication US20230266302A1, “SYNTHESIS AND USE OF N-BENZYL SULFONAMIDES” (THE UNIVERSITY OF TULSA, priority 2020, published 2023).

Tested on: BxPC3 (pancreatic cancer)
Experiment: ATP level assay (CellTiter-Glo), percent of control
Format: cell-based
Settings: Homo sapiens, BXPC-3, 2 h; compound alone, 100 uM, two hour incubation, control DMSO; read-out: POC (percent of control) BxPC3

Structure (SMILES)	activity at 100 µM
CC(=O)n1cc(CNS(=O)(=O)c2ccc(Cl)cc2)c2ccccc21 [Compound 4, N-[(1-acetyl-1H-indole-3-yl)methyl]-4-chlorobenzenesulfonamide]	88.4%

Same assay, conditions: compound 100 uM + rotenone (approximately 1.25 μM), two hour incubation

Structure (SMILES)	POC (percent of control) BxPC3
CC(=O)n1cc(CNS(=O)(=O)c2ccc(Cl)cc2)c2ccccc21 [Compound 4, N-[(1-acetyl-1H-indole-3-yl)methyl]-4-chlorobenzenesulfonamide]	71.1% of control

Tested on: H293 (kidney cancer)
Experiment: as above
Format: cell-based
Settings: 2 h; compound alone, 100 uM, two hour incubation, control DMSO; read-out: POC (percent of control) H293

Structure (SMILES)	activity at 100 µM
CC(=O)n1cc(CNS(=O)(=O)c2ccc(Cl)cc2)c2ccccc21 [Compound 4, N-[(1-acetyl-1H-indole-3-yl)methyl]-4-chlorobenzenesulfonamide]	88.6%

Same assay, conditions: compound 100 uM + 2DG (about 10-20 mM), two hour incubation

Structure (SMILES)	POC (percent of control) H293
CC(=O)n1cc(CNS(=O)(=O)c2ccc(Cl)cc2)c2ccccc21 [Compound 4, N-[(1-acetyl-1H-indole-3-yl)methyl]-4-chlorobenzenesulfonamide]	60% of control

Same assay, conditions: compound 100 uM + rotenone (approximately 1.25 μM), two hour incubation

Structure (SMILES)	POC (percent of control) H293
CC(=O)n1cc(CNS(=O)(=O)c2ccc(Cl)cc2)c2ccccc21 [Compound 4, N-[(1-acetyl-1H-indole-3-yl)methyl]-4-chlorobenzenesulfonamide]	65.8% of control

Tested on: HDF (normal cells)
Experiment: as above
Format: cell-based
Settings: 2 h; compound alone, 100 uM, two hour incubation, control DMSO; read-out: POC (percent of control) HDF

Structure (SMILES)	activity at 100 µM
CC(=O)n1cc(CNS(=O)(=O)c2ccc(Cl)cc2)c2ccccc21 [Compound 4, N-[(1-acetyl-1H-indole-3-yl)methyl]-4-chlorobenzenesulfonamide]	88.1%

Same assay, conditions: compound 100 uM + 2DG (about 10-20 mM), two hour incubation

Structure (SMILES)	POC (percent of control) HDF
CC(=O)n1cc(CNS(=O)(=O)c2ccc(Cl)cc2)c2ccccc21 [Compound 4, N-[(1-acetyl-1H-indole-3-yl)methyl]-4-chlorobenzenesulfonamide]	66.8% of control

Same assay, conditions: compound 100 uM + rotenone (approximately 1.25 μM), two hour incubation

Structure (SMILES)	POC (percent of control) HDF
CC(=O)n1cc(CNS(=O)(=O)c2ccc(Cl)cc2)c2ccccc21 [Compound 4, N-[(1-acetyl-1H-indole-3-yl)methyl]-4-chlorobenzenesulfonamide]	88.6% of control

Tested on: HeLa (cervical cancer)
Experiment: as above
Format: cell-based
Settings: Homo sapiens, HeLa, 2 h; compound alone, 100 uM, two hour incubation, control DMSO; read-out: POC (percent of control) HeLa

Structure (SMILES)	activity at 100 µM
CC(=O)n1cc(CNS(=O)(=O)c2ccc(Cl)cc2)c2ccccc21 [Compound 4, N-[(1-acetyl-1H-indole-3-yl)methyl]-4-chlorobenzenesulfonamide]	90.6%

Same assay, conditions: compound 100 uM + 2DG (about 10-20 mM), two hour incubation

Structure (SMILES)	POC (percent of control) HeLa
CC(=O)n1cc(CNS(=O)(=O)c2ccc(Cl)cc2)c2ccccc21 [Compound 4, N-[(1-acetyl-1H-indole-3-yl)methyl]-4-chlorobenzenesulfonamide]	67.4% of control

Same assay, conditions: compound 100 uM + rotenone (approximately 1.25 μM), two hour incubation

Structure (SMILES)	POC (percent of control) HeLa
CC(=O)n1cc(CNS(=O)(=O)c2ccc(Cl)cc2)c2ccccc21 [Compound 4, N-[(1-acetyl-1H-indole-3-yl)methyl]-4-chlorobenzenesulfonamide]	84.3% of control

Tested on: MCF10A (non-cancerous breast)
Experiment: as above
Format: cell-based
Settings: Homo sapiens, MCF-10A, 2 h; compound alone, 100 uM, two hour incubation, control DMSO; read-out: POC (percent of control) MCF10A

Structure (SMILES)	activity at 100 µM
CC(=O)n1cc(CNS(=O)(=O)c2ccc(Cl)cc2)c2ccccc21 [Compound 4, N-[(1-acetyl-1H-indole-3-yl)methyl]-4-chlorobenzenesulfonamide]	59.7%

Same assay, conditions: compound 100 uM + 2DG (about 10-20 mM), two hour incubation

Structure (SMILES)	POC (percent of control) MCF10A
CC(=O)n1cc(CNS(=O)(=O)c2ccc(Cl)cc2)c2ccccc21 [Compound 4, N-[(1-acetyl-1H-indole-3-yl)methyl]-4-chlorobenzenesulfonamide]	84.8% of control

Same assay, conditions: compound 100 uM + rotenone (approximately 1.25 μM), two hour incubation

Structure (SMILES)	POC (percent of control) MCF10A
CC(=O)n1cc(CNS(=O)(=O)c2ccc(Cl)cc2)c2ccccc21 [Compound 4, N-[(1-acetyl-1H-indole-3-yl)methyl]-4-chlorobenzenesulfonamide]	89.8% of control

Tested on: MCF7 (breast cancer)
Experiment: as above
Format: cell-based
Settings: Homo sapiens, MCF7, 2 h; compound alone, 100 uM, two hour incubation, control DMSO; read-out: POC (percent of control) MCF7

Structure (SMILES)	activity at 100 µM
CC(=O)n1cc(CNS(=O)(=O)c2ccc(Cl)cc2)c2ccccc21 [Compound 4, N-[(1-acetyl-1H-indole-3-yl)methyl]-4-chlorobenzenesulfonamide]	108%

Same assay, conditions: compound 100 uM + 2DG (about 10-20 mM), two hour incubation

Structure (SMILES)	POC (percent of control) MCF7
CC(=O)n1cc(CNS(=O)(=O)c2ccc(Cl)cc2)c2ccccc21 [Compound 4, N-[(1-acetyl-1H-indole-3-yl)methyl]-4-chlorobenzenesulfonamide]	82.2% of control

Same assay, conditions: compound 100 uM + rotenone (approximately 1.25 μM), two hour incubation

Structure (SMILES)	POC (percent of control) MCF7
CC(=O)n1cc(CNS(=O)(=O)c2ccc(Cl)cc2)c2ccccc21 [Compound 4, N-[(1-acetyl-1H-indole-3-yl)methyl]-4-chlorobenzenesulfonamide]	79.2% of control

Tested on: MDA-MB (breast cancer)
Experiment: as above
Format: cell-based
Settings: 2 h; compound alone, 100 uM, two hour incubation, control DMSO; read-out: POC (percent of control) MDA-MB

Structure (SMILES)	activity at 100 µM
CC(=O)n1cc(CNS(=O)(=O)c2ccc(Cl)cc2)c2ccccc21 [Compound 4, N-[(1-acetyl-1H-indole-3-yl)methyl]-4-chlorobenzenesulfonamide]	94.7%

Same assay, conditions: compound 100 uM + 2DG (about 10-20 mM), two hour incubation

Structure (SMILES)	POC (percent of control) MDA-MB
CC(=O)n1cc(CNS(=O)(=O)c2ccc(Cl)cc2)c2ccccc21 [Compound 4, N-[(1-acetyl-1H-indole-3-yl)methyl]-4-chlorobenzenesulfonamide]	63.6% of control

Same assay, conditions: compound 100 uM + rotenone (approximately 1.25 μM), two hour incubation

Structure (SMILES)	POC (percent of control) MDA-MB
CC(=O)n1cc(CNS(=O)(=O)c2ccc(Cl)cc2)c2ccccc21 [Compound 4, N-[(1-acetyl-1H-indole-3-yl)methyl]-4-chlorobenzenesulfonamide]	71.9% of control

Tested on: NCI-H196 (lung cancer)
Experiment: as above
Format: cell-based
Settings: NCI-H196, 2 h; compound alone, 100 uM, two hour incubation, control DMSO; read-out: POC (percent of control) NCI-H196

Structure (SMILES)	activity at 100 µM
CC(=O)n1cc(CNS(=O)(=O)c2ccc(Cl)cc2)c2ccccc21 [Compound 4, N-[(1-acetyl-1H-indole-3-yl)methyl]-4-chlorobenzenesulfonamide]	72.5%

Same assay, conditions: compound 100 uM + 2DG (about 10-20 mM), two hour incubation

Structure (SMILES)	POC (percent of control) NCI-H196
CC(=O)n1cc(CNS(=O)(=O)c2ccc(Cl)cc2)c2ccccc21 [Compound 4, N-[(1-acetyl-1H-indole-3-yl)methyl]-4-chlorobenzenesulfonamide]	49.6% of control

Same assay, conditions: compound 100 uM + rotenone (approximately 1.25 μM), two hour incubation

Structure (SMILES)	POC (percent of control) NCI-H196
CC(=O)n1cc(CNS(=O)(=O)c2ccc(Cl)cc2)c2ccccc21 [Compound 4, N-[(1-acetyl-1H-indole-3-yl)methyl]-4-chlorobenzenesulfonamide]	61.5% of control

Tested on: PC3 (prostate cancer)
Experiment: as above
Format: cell-based
Settings: 2 h; compound alone, 100 uM, two hour incubation, control DMSO; read-out: POC (percent of control) PC3

Structure (SMILES)	activity at 100 µM
CC(=O)n1cc(CNS(=O)(=O)c2ccc(Cl)cc2)c2ccccc21 [Compound 4, N-[(1-acetyl-1H-indole-3-yl)methyl]-4-chlorobenzenesulfonamide]	93.7%

Same assay, conditions: compound 100 uM + 2DG (about 10-20 mM), two hour incubation

Structure (SMILES)	POC (percent of control) PC3
CC(=O)n1cc(CNS(=O)(=O)c2ccc(Cl)cc2)c2ccccc21 [Compound 4, N-[(1-acetyl-1H-indole-3-yl)methyl]-4-chlorobenzenesulfonamide]	61.9% of control

Same assay, conditions: compound 100 uM + rotenone (approximately 1.25 μM), two hour incubation

Structure (SMILES)	POC (percent of control) PC3
CC(=O)n1cc(CNS(=O)(=O)c2ccc(Cl)cc2)c2ccccc21 [Compound 4, N-[(1-acetyl-1H-indole-3-yl)methyl]-4-chlorobenzenesulfonamide]	61.3% of control

Tested on: SkBr3 (breast cancer)
Experiment: as above
Format: cell-based
Settings: Homo sapiens, SK-BR-3, 2 h; compound alone, 100 uM, two hour incubation, control DMSO; read-out: POC (percent of control) SkBr3

Structure (SMILES)	activity at 100 µM
CC(=O)n1cc(CNS(=O)(=O)c2ccc(Cl)cc2)c2ccccc21 [Compound 4, N-[(1-acetyl-1H-indole-3-yl)methyl]-4-chlorobenzenesulfonamide]	79.1%

Same assay, conditions: compound 100 uM + 2DG (about 10-20 mM), two hour incubation

Structure (SMILES)	POC (percent of control) SkBr3
CC(=O)n1cc(CNS(=O)(=O)c2ccc(Cl)cc2)c2ccccc21 [Compound 4, N-[(1-acetyl-1H-indole-3-yl)methyl]-4-chlorobenzenesulfonamide]	87.5% of control

Same assay, conditions: compound 100 uM + rotenone (approximately 1.25 μM), two hour incubation

Structure (SMILES)	POC (percent of control) SkBr3
CC(=O)n1cc(CNS(=O)(=O)c2ccc(Cl)cc2)c2ccccc21 [Compound 4, N-[(1-acetyl-1H-indole-3-yl)methyl]-4-chlorobenzenesulfonamide]	96.8% of control

Tested on: T47D (breast cancer)
Experiment: as above
Format: cell-based
Settings: Homo sapiens, T47D, 2 h; compound alone, 100 uM, two hour incubation, control DMSO; read-out: POC (percent of control) T47D

Structure (SMILES)	activity at 100 µM
CC(=O)n1cc(CNS(=O)(=O)c2ccc(Cl)cc2)c2ccccc21 [Compound 4, N-[(1-acetyl-1H-indole-3-yl)methyl]-4-chlorobenzenesulfonamide]	48.9%

Same assay, conditions: compound 100 uM + 2DG (about 10-20 mM), two hour incubation

Structure (SMILES)	POC (percent of control) T47D
CC(=O)n1cc(CNS(=O)(=O)c2ccc(Cl)cc2)c2ccccc21 [Compound 4, N-[(1-acetyl-1H-indole-3-yl)methyl]-4-chlorobenzenesulfonamide]	36.3% of control

Same assay, conditions: compound 100 uM + rotenone (approximately 1.25 μM), two hour incubation

Structure (SMILES)	POC (percent of control) T47D
CC(=O)n1cc(CNS(=O)(=O)c2ccc(Cl)cc2)c2ccccc21 [Compound 4, N-[(1-acetyl-1H-indole-3-yl)methyl]-4-chlorobenzenesulfonamide]	45.8% of control
